From US20250282723A1, “AMYLOID TARGETING AGENTS AND METHODS OF USING THE SAME” (The Regents of the University of California, priority 2021, published 2025)

How the values were obtained:
[1] = target: T1, aggregated Aβ (1-42) peptides (Homo sapiens, UniProt P05067); experiment: Estimation of binding constant (KD) to aggregated Aβ (1-42) peptides; conditions: aggregated Aβ(1-42) 5 μM, increasing concentration of probe, 5% DMSO in nanopure water
T1 construct: Synthetic Aβ (1-42) peptide was purchased from Biopeptide, Co LLC; purchased Biopeptide, Co LLC (San Diego, California); host or cells: chemical synthesis
Protocol: Preparation of aggregated Aβ (1-42) peptides. Synthetic Aβ (1-42) peptide was purchased from Biopeptide, Co LLC (San Diego, California). Aggregated Aβ (1-42) was prepared as previously described.^26 Briefly, Aβ (1-42) was dissolved in 100% 1,1,1,3,3,3,-hexafluoro-2-propanol (HFIP) to a concentration of 1 mM and put on a shaker at room temperature (RT) for 24 hours. The solution was then diluted in cold nanopure water (2:1 H2O: HFIP). Aliquoted fractions were lyophilized for 3 days before dissolving in nanopure water to a concentration of 100 μM. Aggregated Aβ solutions were incubated and shaken at 37° C. for 3 days before use. The formation of soluble aggregates (67% fibrils as a mixture with 13% oligomers and 20% monomer) was confirmed using a standard thioflavin T (ThT) assay and by Sodium Dodecyl Sulphate-Polyacrylamide Gel Electrophoresis (SDS-PAGE) gel analysis (FIG. 11 and FIG. 12).
Estimation of Binding Constant (KD) to aggregated Aβ (1-42) peptides. Aggregated Aβ(1-42) at a final concentration of 5 μM (based on the molecular weight of monomer) was mixed with increasing concentration of each probe in 5% DMSO in nanopure water. KD's were determined as previously described.^21
Synthetic Aβ (1-42) peptide was purchased from Biopeptide, Co LLC (San Diego, California). Aggregated Aβ (1-42) was prepared as previously described.^32 Briefly, monomeric Aβ (1-42) was dissolved in 100% 1,1,1,3,3,3,-hexafluoro-2-propanol (HFIP) to a final concentration of 1 mM and dissolved on a shaker at RT for 24 hours. This solution was then diluted with cold nanopure water (2:1 H2O:HFIP) and aliquoted into fractions. These samples were then lyophilized for 3 days before dissolving in nanopure water to a final concentration of 100 μM. AD solutions were aggregated by incubating and shaking at 37° C. for 3 days before use. The formation of soluble aggregates was confirmed using a standard Thioflavin T (ThT) assay and by SDS-PAGE gel analysis.^1
(§1) Aggregated Aβ(1-42) or αS at a final concentration of 5 μM (based on the molecular weight of the monomer) was mixed with an increasing concentration of each probe in 5% DMSO in nanopure water. Kd's were calculated as previously described.^34 The measurements for each probe were repeated in technical triplicates and the averages are shown with standard deviations. Kd's for probes 1-3 with aggregated Aβ(1-42) have been reported previously.^31

aggregated αS [2] = target: T2, aggregated αS (Homo sapiens, UniProt P37840); experiment: Fluorescence emission and fluorescence enhancement of probes bound versus unbound to aggregated αS; format: binding; conditions: probes of FIG. 14; for Emmax (with αS) / FI with αS: aggregated αS 5 μM, probe 4 μM; for Emmax (with αS): 5% DMSO in nanopure water; for FI with αS: fold increase of fluorescence, bound vs unbound; for FI αS/Aβ: selectivity of fluorescence response to αS fibrils over Aβ fibrils
T2 construct: made in house; host or cells: E. coli BL21 (plasmid pET5α aSynWT)
Protocol: (§2) Expression and purification of recombinant α-synuclein was followed as reported previously.^32 Briefly, α-synuclein was purified from BL21 E. coli as described: A starter culture of transformed bacteria (pET5α aSynWT) (LB broth with ampicillin [final concentration: 100 μg/mL]) was incubated overnight. Following incubation, 25 mL of the started culture was added to a 500 mL mixture of LB broth and ampicillin. Protein expression was induced by addition of IPTG [0.119 g/500 mL] when an OD600 between 0.5-0.8 was achieved. After 4 h, flasks were centrifuged (5,000×g for 20 min) and the supernatant was removed. The pellets were then re-suspended in 20 mM Tris, 25 mM NaCl, 1 mM EDTA, pH 8.0, transferred into a flask, boiled for 1-2 minutes in a microwave, and boiled in a water bath (90° C.) for 30 minutes. Samples were then centrifuged (18,000×g for 30 min) and the supernatant was collected and filtered through a 0.2 μm filter. α-synuclein protein was further purified using 2×5 ml HiTrapQ HP anion exchange columns (GE, #17-1153-01) followed by Size Exclusion Column (Superdex 200, #28-9893-35). Pure α-synuclein determined by Coomassie and western blot were lyophilized and stored at −80° C. until use.
(§3) Aggregation of purified α-synuclein was followed as reported previously.^33 The lyophilized powder was dissolved to a final concentration of 100 μM in sodium phosphate buffer (50 mM, pH 7.4) with 0.1 mM EDTA and 0.02% sodium azide (w/v) and was aggregated at 37° C. with shaking at 500 rpm for 3 weeks. Fibrillization was confirmed by SDS-PAGE gel and standard ThT assay.
Aggregated αS or Aβ(1-42) at a final concentration of 5 μM (based on the molecular weight of monomer) was mixed with each fluorescent probe at a final concentration of 4 μM in 5% DMSO in nanopure water. The solution (80 μL total volume) was transferred to a black opaque 96 well plate and the fluorescence excitation and emission were read using a microplate reader. For emission fluorescence enhancement, the relative fluorescence enhancement of the bound versus unbound state was estimated by comparing the fluorescence intensity at λmax of the amyloid-bound state.

aggregated αS [3] = target: T2, aggregated αS; experiment: Estimation of binding constant (Kd) to aggregated αS; conditions: probes of FIG. 14; aggregated αS 5 μM, increasing concentration of probe, 5% DMSO in nanopure water
Protocol: as §2, §3, §1

T1 sequence (P05067 672-713): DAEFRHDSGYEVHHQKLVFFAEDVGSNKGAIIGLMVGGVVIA

Row | Compound | Kd [1] [µM] | Emmax (with αS) (aggregated αS [2]) [nm] | FI with αS (aggregated αS [2]) | FI αS/Aβ (aggregated αS [2]) | Kd (aggregated αS [3]) [µM]
1 | COCCOCCOCCNC(=O)C(C#N)=Cc1ccc2cc(N3CCCCC3)ccc2c1 (mixture of isomers) [Compound 1] | 6.3 ± 0.7 | 539 | 3.0 ± 0.5 | 1.4 | 3.9 ± 3.9
2 | COCCOCCOCCNC(=O)/C(C#N)=C/c1ccc2cc(N3CCCCC3C)ccc2c1 (racemic) [Compound 4, (E)-2-cyano-N-(2-(2-(2-methoxyethoxy)ethoxy)ethyl)-3-(6-(2-methylpiperidin-1-yl)naphthalen-2-yl)acrylamide] | 4.4 ± 2.3 | 531 | 3.8 ± 0.4 | 2.0 | 4.5 ± 1.6
3 | CCC1CCCCN1c1ccc2cc(/C=C(\C#N)C(=O)NCCOCCOCCOC)ccc2c1 (racemic) [Compound 5, (E)-2-cyano-3-(6-(2-ethylpiperidin-1-yl)naphthalen-2-yl)-N-(2-(2-(2-methoxyethoxy)ethoxy)ethyl)acrylamide] | 3.2 ± 0.6 | 534 | 4.6 ± 0.7 | 3.8 | 5.8 ± 1.8
